Reference: patent US20130203718A1 (priority 2010, published 2013)

target: T1, hPRB (Homo sapiens, UniProt P06401); test: PR transactivation assay (GRE2-Luc) in MDA-MB-231 iPRAB cells conditionally expressing hPRB; format: cell-based; set-up: expressed in transfected cells; details: not given
T1 sequence (P06401 1-933): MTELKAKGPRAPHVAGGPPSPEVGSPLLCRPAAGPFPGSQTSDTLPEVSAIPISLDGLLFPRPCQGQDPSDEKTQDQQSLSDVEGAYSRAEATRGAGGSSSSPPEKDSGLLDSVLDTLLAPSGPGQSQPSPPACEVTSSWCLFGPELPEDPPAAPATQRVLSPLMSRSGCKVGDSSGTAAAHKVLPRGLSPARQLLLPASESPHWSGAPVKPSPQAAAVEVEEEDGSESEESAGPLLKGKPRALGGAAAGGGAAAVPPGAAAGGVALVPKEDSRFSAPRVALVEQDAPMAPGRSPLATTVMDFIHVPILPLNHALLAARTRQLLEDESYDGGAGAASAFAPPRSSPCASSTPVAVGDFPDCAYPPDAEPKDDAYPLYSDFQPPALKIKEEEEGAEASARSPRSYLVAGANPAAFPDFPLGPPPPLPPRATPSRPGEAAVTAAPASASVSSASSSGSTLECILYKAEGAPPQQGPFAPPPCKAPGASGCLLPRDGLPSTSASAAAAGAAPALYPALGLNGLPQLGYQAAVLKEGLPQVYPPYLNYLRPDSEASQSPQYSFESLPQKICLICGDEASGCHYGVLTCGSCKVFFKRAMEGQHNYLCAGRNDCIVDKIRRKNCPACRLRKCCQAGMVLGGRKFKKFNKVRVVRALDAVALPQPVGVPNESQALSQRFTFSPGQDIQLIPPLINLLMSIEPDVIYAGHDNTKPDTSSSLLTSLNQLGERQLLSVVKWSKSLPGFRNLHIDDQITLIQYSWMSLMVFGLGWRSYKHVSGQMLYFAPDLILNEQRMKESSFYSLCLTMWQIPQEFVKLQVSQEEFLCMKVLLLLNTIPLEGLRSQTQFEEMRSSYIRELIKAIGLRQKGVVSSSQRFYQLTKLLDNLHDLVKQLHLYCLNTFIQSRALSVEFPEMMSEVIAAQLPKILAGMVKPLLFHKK
Method: Establishment of the MDA-MB-231 iPRAB cells.
The PR negative breast cancer cells MDA-MB-231 were routinely maintained in RPMI 1640 medium with L-glutamine enriched with 5% fetal calf serum (FCS) and supplemented with antibiotics (penicillin 100 UI/ml, streptomycin 100 μg/ml). MDA MB-231 iPRAB cells allowing the bi-inducible expression of PRA and PRB isoforms were generated in two steps. First, pZX-TR vector expressing inducer proteins required for Tet-on (Tet-Repressor) and Ecdysone receptor-based system (EcR and RXR hybrids) was engineered using pcDNA6-TR (T-REx system, Invitrogen) and pZRD (Lessard, J. Prostate 2007 67, 808) derived from Rheoswitch system (NE Biolabs). Transfection of MDA-MB-231 cells by pZX-TR (harboring zeocin resistant gene) was performed using Lipofectamine 2000 (Invitrogen). Three hundred clones resistant to Zeocin (1 μg/ml) were isolated, amplified and screened for the proper functioning of both RheoSwitch and Tet-on inducible systems by transient transfection with pGal-4-luciferase or pTO-luciferase reporter genes generated as described. Luciferase activity was determined in the absence or presence of respective inducer ligand RSL1 (diacylhydrazine, a non-steroidal agonist of ecdysone, NE Biolabs) (500 nM) or Doxycycline (Dox, a tetracyclin analog, Sigma-Aldrich) (1 μg/ml) after 24 h. The clone that produced minimal background in the absence of both RSL1 and Dox and high inducible expression level on reporter gene assays by both systems was finally selected, verified and amplified (clone 250). This cell line was then further stably transfected by PR isoforms expressing vectors specifically engineered: pGaluas-PRA (harboring neomycin resistant gene) expressing PRA under the control of Gal4 Upstream Activating Sequences upstream of a truncated CMV promoter, and pTO-PRB (harboring blasticidin resistant gene) expressing PRB under the control of TetO2 responsive elements downstream of the full CMV promoter. Clones resistant to zeocin (1 μg/ml), neomycin (500 μg/ml) and blasticidin (2 μg/ml) were then isolated, amplified and screened by Western blot for PR isoforms expression in the absence or presence of both RSL1 (500 nM) and Dox (1 μg/ml) after 24 h. […] It was used to evaluate APRn properties and was defined as MDA-MB-231 iPRAB cells conditionally expressing PRB in the presence of doxycyclin (1 μg/ml).
PR Transactivation Assays in MDA-MB-231 iPRAB Cells.
The cells were cultured in 96-well plates in RPMI 1640 medium with L-glutamine without phenol red, enriched with 5% DCC serum containing inducer ligand RSL1 (500 nM) or Dox (1 μg/ml) for PRA or PRB expression during 24 h. Cells were then transfected with GRE2-Luc (100 ng) and β-galactosidase (20 ng) plasmids during 6 h, using Lipofectamine 2000 (Invitrogen). […] Whole cell extracts were collected using lysis buffer (Promega). Luciferase and β-galactosidase activity or total protein contents (BCA assay) were determined using a luminometer (Victor 378, Perkin Elmer). Luciferase activity was normalized by β-galactosidase activity or total protein contents.
All the synthesized APRn were classified in 4 series depending on the nature of their C3 substituent (R1/R′1 groups). The first one (series 1) includes APRn with no C3 substituent (R1═R′1═H) whereas series 2, 3 and 4 are related to APRn bearing a methoxyl (R1═OMe), a hydroxyl (R1═OH) and a fluorine atom (R1═F), respectively. The agonist/antagonist activities of APRn were determined either in human HEK293T cells transiently expressing hPRB or in human MDA-MB-231 iPRAB cells conditionally expressing hPRB, by using a luciferase reporter gene placed under the control of a glucocorticoid response element (GRE2-Luc). The APRn “agonist efficacy” was determined from the luciferase activity measured in the presence of APRn (1 μM). […] The “agonist efficacy” and “antagonist efficacy” are expressed as defined in the biological protocols section.

Structure (SMILES) | IC50 [nM]
C[C@@H]1CCC2C3CC=C4C[C@@H](F)CC[C@]4(C)C3CC[C@]2(C)[C@H]1F (stereo partly drawn) [APR-19, 3β,17α-Difluoro-17α-methyl-D-Homo-pregn-5-ene] | ~500
CC#C[C@]1(O)CCC2C3CC[C@H]4C[C@@H](F)CC[C@]4(C)C3CC[C@@]21C (stereo partly drawn) [APR-43, 3β-Fluoro-17α-(1-propynyl)-5α-androstan-17β-ol] | ~500
C[C@]12CCC3C(CC=C4C[C@@H](F)CC[C@@H]43)C1CCC2=O (stereo partly drawn) [APR-47, 3β-Fluoro-19-nor-androst-5-en-17-one] | ~500
CC#C[C@]1(O)CCC2C3CC=C4C[C@@H](F)CC[C@@H]4C3CC[C@@]21C (stereo partly drawn) [APR-51, 3β-Fluoro-17α-(1-propynyl)-19-nor-androst-5-en-17β-ol] | ~500
CC#C[C@]1(O)CCC2C3CC[C@H]4CCCC[C@@H]4C3CC[C@@]21C (stereo partly drawn) [APR-54, 17α-(1-Propynyl)-19-nor-5-androstan-17β-ol] | ~500

same assay, conditions: dose response curves, MDA-MB-231 iPRAB cells expressing hPRB, FIG. 9; read-out: IC50

Structure (SMILES) | IC50 [nM]
CC(=O)[C@H]1CC[C@H]2[C@@H]3CC=C4C[C@@H](F)CC[C@]4(C)[C@H]3CC[C@]12C [APR-16, 3β-Fluoropregn-5-en-20-one] | ~500
